Reference: patent US10100282B2, “Differentiation of pluripotent cells” (FUJIFILM Cellular Dynamics, Inc., priority 2009, dated 2018)

System: hESCs
Test: Cytokine matrix: serum-free EB hematopoietic differentiation, surface markers by flow cytometry
Assay type: cell-based, human
Procedure: Cells were collected from each well/condition and washed once with media. The cell pellet was digested using TrypLE™ or 0.5% trypsin for 5-10 minutes in a 37° C. incubator followed by washes with media and passage through a 70-μm cell strainer. […] Non-viable cells were excluded with 7-aminoactinomycin D (7-AAD, BD Biosciences). Live cell analysis was performed on a FACSCalibur™ or Accuri flow cytometer and Cell Quest software. hESCs adapted to feeder free growth on matrigel maintained using mTESR were preconditioned for three days in the presence of X-vivo-15 containing 0.1 ng/ml TGF-β and 20 ng/ml FGF-2. Cells were harvested using TrypLE for 6 minutes at 37 C. TrypLE™ was neutralized using EB basal media containing 1 μM ROCK inhibitor (H-1152), Soybean trypsin inhibitor (0.25 mg/ml). The cells were washed once in EB basal media containing 1 μM ROCK inhibitor and soybean trypsin inhibitor (0.25 mg/ml). The cells were plated in low attachment plates in EB basal media containing 1 μM ROCK inhibitor and soybean trypsin inhibitor (0.25 mg/ml). The media was changed the next day to EB basal media containing different cytokine formulations. […] The cytokine combinations used are listed below in Table 3. The EB cultures were half fed with fresh differentiation media every two days. The EB cultures were harvested on day 8, 12 and 17 of differentiation. The EB cultures were harvested by spinning down all the cells and digesting the EBs with TrypLE™ or 0.5% trypsin. The phenotype of the progenitor cell types was analyzed by flow cytometry and the cells were plated in methylcellulose media for CFU assays. “FLT3” refers to the Flt3 ligand below.

| Substance | CD31 expressing cells (DAY 8, factor ABSENT) [%] | CD34 expressing cells (DAY 8, factor ABSENT) [%] | CD43 expressing cells (DAY 8, factor ABSENT) [%] | CD45 expressing cells (DAY 8, factor ABSENT) [%] | FLK-1 expressing cells (DAY 8, factor ABSENT) [%] | CD31 expressing cells (DAY 8, factor PRESENT) [%] | CD34 expressing cells (DAY 8, factor PRESENT) [%] | CD43 expressing cells (DAY 8, factor PRESENT) [%] | CD45 expressing cells (DAY 8, factor PRESENT) [%] | FLK-1 expressing cells (DAY 8, factor PRESENT) [%] | CD31 expressing cells (DAY 12, factor ABSENT) [%] | CD34 expressing cells (DAY 12, factor ABSENT) [%] | CD43 expressing cells (DAY 12, factor ABSENT) [%] | CD45 expressing cells (DAY 12, factor ABSENT) [%] | FLK-1 expressing cells (DAY 12, factor ABSENT) [%] | CD31 expressing cells (DAY 12, factor PRESENT) [%] | CD34 expressing cells (DAY 12, factor PRESENT) [%] | CD43 expressing cells (DAY 12, factor PRESENT) [%] | CD45 expressing cells (DAY 12, factor PRESENT) [%] | FLK-1 expressing cells (DAY 12, factor PRESENT) [%] | further results |
| --- | --- | --- | --- | --- | --- | --- | --- | --- | --- | --- | --- | --- | --- | --- | --- | --- | --- | --- | --- | --- | --- |
| SCF: Stem cell factor, a cytokine which binds CD117 (c-Kit) | 0.7 | 0.8 | 0.8 | 0.2 | 1.9 | 0.9 | 1.5 | 1.0 | 0.2 | 2.0 | 1.3 | 1.7 | 1.2 | 1.5 | 0.3 | 2.6 | 2.6 | 3.2 | 2.4 | 0.6 | CD31 expressing cells (DAY 17, factor ABSENT): 3.9%; CD34 expressing cells (DAY 17, factor ABSENT): 2.3%; CD43 expressing cells (DAY 17, factor ABSENT): 4.1%; CD45 expressing cells (DAY 17, factor ABSENT): 4.0%; FLK-1 expressing cells (DAY 17, factor ABSENT): 1.4%; CD31 expressing cells (DAY 17, factor PRESENT): 9.3%; CD34 expressing cells (DAY 17, factor PRESENT): 2.6%; CD43 expressing cells (DAY 17, factor PRESENT): 9.8%; CD45 expressing cells (DAY 17, factor PRESENT): 9.6%; FLK-1 expressing cells (DAY 17, factor PRESENT): 2.2% |
| TPO: Thrombopoietin, a glycoprotein hormone | 0.8 | 1.0 | 1.0 | 0.2 | 1.9 | 0.8 | 1.3 | 0.8 | 0.2 | 1.9 | 2.3 | 2.2 | 2.2 | 2.6 | 0.7 | 1.7 | 2.2 | 2.3 | 1.5 | 0.3 | CD31 expressing cells (DAY 17, factor ABSENT): 4.8%; CD34 expressing cells (DAY 17, factor ABSENT): 2.5%; CD43 expressing cells (DAY 17, factor ABSENT): 4.8%; CD45 expressing cells (DAY 17, factor ABSENT): 4.9%; FLK-1 expressing cells (DAY 17, factor ABSENT): 1.7%; CD31 expressing cells (DAY 17, factor PRESENT): 8.6%; CD34 expressing cells (DAY 17, factor PRESENT): 2.4%; CD43 expressing cells (DAY 17, factor PRESENT): 9.2%; CD45 expressing cells (DAY 17, factor PRESENT): 8.8%; FLK-1 expressing cells (DAY 17, factor PRESENT): 2.0% |
| GMCSF: Granulocyte-macrophage colony-stimulating factor | 0.4 | 1.0 | 0.3 | 0.2 | 2.2 | 1.1 | 1.3 | 1.4 | 0.2 | 1.7 | 1.5 | 1.0 | 1.4 | 1.3 | 0.6 | 2.4 | 2.4 | 3.0 | 2.6 | 0.4 | CD31 expressing cells (DAY 17, factor ABSENT): 1.6%; CD34 expressing cells (DAY 17, factor ABSENT): 2.1%; CD43 expressing cells (DAY 17, factor ABSENT): 1.4%; CD45 expressing cells (DAY 17, factor ABSENT): 0.9%; FLK-1 expressing cells (DAY 17, factor ABSENT): 1.4%; CD31 expressing cells (DAY 17, factor PRESENT): 11.3%; CD34 expressing cells (DAY 17, factor PRESENT): 2.8%; CD43 expressing cells (DAY 17, factor PRESENT): 12.1%; CD45 expressing cells (DAY 17, factor PRESENT): 12.3%; FLK-1 expressing cells (DAY 17, factor PRESENT): 2.3%; role during EB differentiation (serum free hematopoietic differentiation, days 8, 12, 17): play a role during later stages of EB differentiation |
| IL6: Interleukin-6, a pro-inflammatory cytokine | 0.8 | 0.9 | 0.8 | 0.2 | 1.2 | 0.8 | 1.4 | 1.0 | 0.2 | 2.6 | 1.4 | 1.7 | 1.2 | 1.5 | 0.5 | 2.5 | 2.6 | 3.2 | 2.4 | 0.5 | CD31 expressing cells (DAY 17, factor ABSENT): 3.8%; CD34 expressing cells (DAY 17, factor ABSENT): 1.8%; CD43 expressing cells (DAY 17, factor ABSENT): 4.1%; CD45 expressing cells (DAY 17, factor ABSENT): 4.1%; FLK-1 expressing cells (DAY 17, factor ABSENT): 1.1%; CD31 expressing cells (DAY 17, factor PRESENT): 9.4%; CD34 expressing cells (DAY 17, factor PRESENT): 3.0%; CD43 expressing cells (DAY 17, factor PRESENT): 9.9%; CD45 expressing cells (DAY 17, factor PRESENT): 9.6%; FLK-1 expressing cells (DAY 17, factor PRESENT): 2.5% |
| EPO: Erythropoietin | 0.8 | 1.2 | 1.0 | 0.2 | 2.2 | 0.7 | 1.1 | 0.8 | 0.2 | 1.7 | 2.2 | 2.4 | 2.1 | 2.6 | 0.8 | 1.8 | 2.0 | 2.4 | 1.5 | 0.2 | CD31 expressing cells (DAY 17, factor ABSENT): 4.6%; CD34 expressing cells (DAY 17, factor ABSENT): 2.5%; CD43 expressing cells (DAY 17, factor ABSENT): 5.0%; CD45 expressing cells (DAY 17, factor ABSENT): 4.8%; FLK-1 expressing cells (DAY 17, factor ABSENT): 1.6%; CD31 expressing cells (DAY 17, factor PRESENT): 8.8%; CD34 expressing cells (DAY 17, factor PRESENT): 2.4%; CD43 expressing cells (DAY 17, factor PRESENT): 9.1%; CD45 expressing cells (DAY 17, factor PRESENT): 8.9%; FLK-1 expressing cells (DAY 17, factor PRESENT): 2.1% |
